Results as given in patent publication US7173012B2, “Hypoglycaemic peptides and methods of use thereof” (International Diabetes Institute, priority 2001, dated 2007).
“Also recorded” adds a separate entry of the source. Ends that are not written are not given here.

Columns and labels:
[1] = test system: isolated rat hemidiaphragm muscle; assay: Glycogen synthesis in isolated rat hemidiaphragm muscle (incorporation of 14C-glucose into glycogen, in presence of insulin); format: cell-based; details: for biological activity on insulin-stimulated glycogen synthesis (in words): isolated rat muscle, FIG. 3 / FIG. 7
Protocol: Glycogen synthesis in isolated rat hemidiaphragm muscle was measured by the rate of incorporation of radioactive glucose into glycogen (16). Overnight-fasted male albino Wistar rats (20 week old) were killed by decapitation and their hemidiaphragm tissues immediately removed. The hemidiaphragm tissues were pre-incubated for 30 min at 37° C., in Kreb's-Ringer bicarbonate buffer (KRB) containing 1.0% bovine serum albumin BSA, and 1.0 mg/ml glucose gassed pH 7.4. After pre-incubation, the tissues were further incubated for 60 min at 37° C. in 2 ml of incubation buffer in the presence of insulin at a concentration 0.33 μu/ml and the label ^14C-glucose at 0.28 μCi/ml under an atmosphere of carbogen with or without peptide of various concentrations. At the end of the incubation, the tissues were removed and rinsed with cold distilled water, blotted and placed in a plastic centrifuge tubes for glycogen extraction with 30% KOH 10 μl/mg tissue for 5 min in a boiling water bath. The tissue ^14C-glycogen was precipitated with saturated Na2SO4 and absolute alcohol. After centrifugation at 4000×G at 4° C. for 10 min, the supematant was discarded and the precipitate washed twice by resuspending in 66% ethanol and centrifuged as before. The final glycogen precipitate was dissolved in distilled water 30 μl/mg and 1.0 ml of the solution was transferred to a counting vial containing a triton scintillator (8 ml). Radioactivity was determined in a Wallac LKB counter from Pharmacia-Wallac Oy, (Turku, Finland). The total glycogen content in the diaphragm muscle was calculated according to the method of Van Handel (17).
(§1) Experimental procedures for the in vitro and in vivo assays were described in Example 1. In principle, the rate of conversion from glucose into glycogen in isolated hemidiaphragm muscle was used as the index to determine the in vitro activity of peptides (6). The in vivo tests for the peptides were performed on Zucker fatty (fa/fa) rats by i.v. administration of peptides and the reduction of the blood glucose levels was measured and regarded as the index of the hypoglycaemic effect (18).

[2] = Isoaspartate (β-isomerised) formation in synthetic peptides, by reverse-phase HPLC; format: physicochemical; details: β-isomerised peptide obtained after synthesis (piperidine deprotection, TFA cleavage), HPLC 214 nm
Protocol: A mixture of synthetic peptides (Gly-His-Thr-Asp, Val-His-Thr-Asp and Asp-His-Thr-Gly) and their corresponding β-isomerised formation (Gly-His-Thr-βAsp, Val-His-Thr-βAsp and βAsp-His-Thr-Gly) were separated by reverse-phase HPLC and eluted with an isocritic running with 2% buffer B (buffer A is 0.1% trifluoroacetic acid in H2O) at 1 ml/min over 30 min. Peptides were determined by their absorbance at 214 nm.
Based on the structure of the UP-401 peptide, analogues with various sequences were synthesised for further biological characterization as shown in Table 1. All synthetic peptides were purified by RP-HPLC using a C18 column and characterized by mass spectrometry. During synthesis, the peptide chains were treated with base (piperidine) in deprotection steps and then eventually treated with TFA at cleavage steps.
Table 2 and FIG. 5 outline the amino acid sequence of the UP-401 peptide and its analogues, and the ratio of nonisomerized and β-isomerised peptide obtained in each.

[3] = test system: male Zucker fatty (fa/fa) rats; assay: In vivo hypoglycaemic test: blood glucose after i.v. peptide then insulin; design: species or system rat; blood glucose level reduced to a maximum of / Reduction of blood glucose level: unit not given here; details: for in vivo hypoglycaemic effect on blood glucose levels (in words): i.v., overnight-fasted Zucker fatty rats, compared with saline control or comparator peptide
Protocol: In vivo tests of the hypoglycaemic peptides were performed on overnight-fasted male Zucker fatty (fa/fa) rats 45 min after induction of anaesthesia with an intraperitoneal injection of sodium pentobarbitone at a dose 60 mg/kg body weight. Basal blood glucose samples were collected from the cut tip of the tail. The two femoral veins in the anaesthetised animals were then exposed, followed immediately by an intravenous injection of saline (control) or peptide into the left femoral vein. Approximately 15 min after the administration of peptide or saline via the left femoral vein, insulin was injected via the right femoral vein. […] Blood glucose levels of the collected samples were measured immediately by the glucose oxidation method using a Yellow Springs YSI modal 2300 STAT Glucose Analyzer (Yellow Spring, Ohio).
as §1

[4] = 3 mg/kg body weight, Example 1, FIG. 4

Row | Substance | biological activity on insulin-stimulated glycogen synthesis (in words) [1] | Isoasp [2] | Reduction of blood glucose level ([3]; 3 mg, 15 min) | Reduction of blood glucose level ([3]; 3 mg, 30 min) | Reduction of blood glucose level ([3]; 3 mg, 45 min) | Reduction of blood glucose level ([3]; 3 mg, 60 min) | Reduction of blood glucose level ([3]; 3 mg, 75 min) | Reduction of blood glucose level ([3]; 3 mg, 90 min) | in vivo hypoglycaemic effect on blood glucose levels (in words) [3] | other results
1 | Asp-His-Thr-Gly-NH2 (DHTG-NH2) [UP-403] | reduced the peptide activity; also recorded: reduced the potency | 75.2 | – | – | – | – | – | – | – | biological activity on insulin-stimulated glycogen synthesis (in words) ([1]; listed as Asp-His-Thr-Gly): also detected
2 | Gly-His-Thr-Asp-NH2 (GHTD-NH2) [UP-401] | better insulin-potentiating effect than that of the known insulin-potentiating hGH(6–13) peptide | 45.2 | −0.50 | −0.91 | −1.1 | −0.93 | −0.64 | −0.08 | significant | increase of glycogen synthesis ([1]; isolated rat hemi-diaphragm, with insulin, synthetic peptide 0.1 μM (FIG. 3)): 36.3%; hypoglycaemic action diminished after [3, 4]: 90 min; in vivo hypoglycaemic action found after the injection (onset) [3, 4]: 15 min; time of maximal hypoglycaemic effect after treatment [3, 4]: 45 min; time of maximal decrease in blood glucose level after treatment ([3]; 3 mg/kg, Example 2): 60 min
3 | Val-His-Thr-Asp-NH2 (VHTD-NH2) [UP-402] | much higher than that of any other peptide | 48.3 | −0.26 | −0.62 | −1.21 | −1.25 | −0.64 | 0.05 | – | higher glycogen synthesis ([1]; in vitro, insulin-stimulated, isolated rat muscle (FIG. 7)): 68%; blood glucose level reduced to a maximum of ([3]; 3 mg/kg body weight): 0.95; effect on blood glucose prolonged to ([3]; 4.5 mg/kg body weight, FIG. 8): 120 min; Reduction of blood glucose level ([3]; 4.5 mg, 15 min): −0.43; Reduction of blood glucose level ([3]; 4.5 mg, 30 min): −1.03; Reduction of blood glucose level ([3]; 4.5 mg, 45 min): −1.50; Reduction of blood glucose level ([3]; 4.5 mg, 60 min): −1.45; Reduction of blood glucose level ([3]; 4.5 mg, 75 min): −1.52; Reduction of blood glucose level ([3]; 4.5 mg, 90 min): −1.35; Reduction of blood glucose level ([3]; 4.5 mg, 120 min): 0.07
4 | Val-His-Thr-Pro-NH2 (VHTP-NH2) [UP-404] | reduced the potency | – | −0.21 | −0.54 | −0.77 | −0.95 | 0.23 | −0.03 | – | biological activity on insulin-stimulated glycogen synthesis (in words) ([1]; listed as Val-His-Thr-Pro): no appreciable stimulation
5 | Val-His-Thr-isoAsp-NH2 (VHTX; HELM PEPTIDE1{V.H.T.[O=C(O)[C@H](CC(=O)[*:2])N[*:1]].[am]}$$$$V2.0; N-terminus assumed; SMILES CC(C)[C@H](N)C(=O)N[C@@H](Cc1c[nH]cn1)C(=O)N[C@H](C(=O)N[C@@H](CC(N)=O)C(=O)O)[C@@H](C)O) [UP-406] | reduced the potency | – | – | – | – | – | – | – | No significant difference | biological activity of isoaspartate peptide, reduced to (relative to Val-His-Thr-Asp) ([1]; peptide concentration of 0.1 mM, insulin-stimulated glycogen synthesis): 46%
6 | isoAsp-His-Thr-Gly-NH2 (XHTG; HELM PEPTIDE1{[N[C@@H](CC(=O)[*:2])C(=O)O].H.T.G.[am]}$$$$V2.0; N-terminus assumed; SMILES C[C@@H](O)[C@H](NC(=O)[C@H](Cc1c[nH]cn1)NC(=O)C[C@H](N)C(=O)O)C(=O)NCC(N)=O) [UP-407] | reduced the peptide activity | – | – | – | – | – | – | – | – | biological activity on insulin-stimulated glycogen synthesis (in words) ([1]; listed as βAsp-His-Thr-Gly): also detected
